According to US8198317B2, “Methylenedioxy phenolic compounds and their use to treat disease” (The Ohio State University Research Foundation, priority 2008, dated 2012):

How the values were obtained:
[1] = system: PCSK9; experiment: PCSK9 expression in HepG2 cells; type: cell-based, human
Text: (§1) Next we investigated the effect of INV-75 in regulating LDL receptor expression in the same cells using a similar protocol to assess dose and temporal dependence. FIGS. 5E and 5F depict the time course of LDL receptor expression and dose dependence in response to INV-75. […] INV-75 had no effects on SREBP-1 regulation (data not shown). Simultaneously multiple genes involved in cholesterol synthesis and regulation, apolipoprotein gene expression and expression of PCSK9 (Proprotein convertase subtilisin/kexin type 9) was tested. The latter gene is known to regulate LDL receptor expression by binding to the epidermal growth factor-like repeat A (EGF-A) domain of the low-density lipoprotein receptor (LDLR), inducing LDLR degradation. Inhibition of PSCK9 function is currently being explored as a means of lowering cholesterol levels.

[2] = system: SREBP-1; experiment: SREBP-1 regulation in HepG2 cells; type: cell-based, human; conditions: data not shown
Text: as §1

[3] = system: LDL receptor; experiment: LDL receptor mRNA by RT-PCR in HepG2 cells; type: cell-based, human; conditions: HepG2, time dependent and dose dependent
Experimental: FIG. 5E is graph showing time course of low density lipoprotein receptor (LDLR) messenger RNA (mRNA) with INV-75 assessed by quantitative real time polymerase chain reaction (RT-PCR). A total of three experiments were performed. *, p<0.01 by ANOVA compared to vehicle.
FIG. 5F is a graph showing dose dependency experiments of low density lipoprotein receptor (LDLR) messenger RNA (mRNA) measurement with INV-75. HepG2 cells were stimulated with multiple concentrations of INV-75 for 1 hour and LDL mRNA expression was measured by quantitative real time polymerase chain reaction (RT-PCR). A total of three experiments were performed. *, p<0.01 by ANOVA compared to vehicle. Dose of INV-75 is log molar concentration.
Next we investigated the effect of INV-75 in regulating LDL receptor expression in the same cells using a similar protocol to assess dose and temporal dependence. FIGS. 5E and 5F depict the time course of LDL receptor expression and dose dependence in response to INV-75. […] INV-75 had no effects on SREBP-1 regulation (data not shown). Simultaneously multiple genes involved in cholesterol synthesis and regulation, apolipoprotein gene expression and expression of PCSK9 (Proprotein convertase subtilisin/kexin type 9) was tested. […]

[4] = system: Patients; experiment: Treatment of dyslipidemia in diabetic patients (Example 25); type: in vivo, human; conditions: oral, 12 months
Text: Individuals with Type I and Type II diabetes are at risk for future cardiovascular events such as heart attacks, strokes and kidney disease. These individuals often have abnormalities in lipids such as elevations in triglycerides and VLDL cholesterol. They are on treatments such as hypolipidemic drug therapy such as statins and fibrates (Gemfibrozil or Fenofibrate) to lover cholesterol levels in conjunction with glycemia lowering strategies such as Insulin, PPAR γ agents, Metformin or sulfonylurea therapy. In addition to these treatments they will also receive an acceptable dose of a composition comprising a compound of the present invention in an acceptable carrier orally chronically for durations in excess of 12 months. In one study, (3,4-methylenedioxy phenyl acetate (INV 73); 3,4-methylenedioxy-6-nitrophenol (INV 74); 3,4-methylenedioxy-6-nitrophenyl acetate (INV 75); are administered to these individuals. The patients undergo lipid measurements at baseline and at the end of treatment for a 12 month duration. At the end of 12 months of treatment, there is lowering of VLDL cholesterol and a decrease in triglycerides.

[5] = system: Individuals; experiment: Treatment of inflammatory arthritis (Example 26); type: in vivo, human; conditions: oral, 6 months
Text: Individuals with rheumatoid arthritis, psoriatic arthritis and systemic lupus erythematosis suffer from recurrent bouts of inflammatory arthritis. They are usually on treatments such as non-steroidal agents such as cyclooxygenase inhibitors, anti-TNFα treatments and other types of immunotherapy. In addition to these treatments they will also receive an acceptable dose of a composition comprising a compound of the present invention in an acceptable carrier orally chronically for durations in excess of 6 months. In one study, 3,4-methylenedioxy-6-nitrophenyl acetate (INV 75) is administered to these individuals. The patients undergo an assessment of joint pains and inflammatory markers such as C-reactive protein (CRP) and erythrocyte sedimentation rate.

[6] = system: New Zealand White rabbits; experiment: MRI assessment of atherosclerosis in balloon denuded NZW rabbits; type: in vivo, rabbit
Experimental: Animal Model: 15 male New Zealand White rabbits (Charles River, Mass.) were fed with high fat diet (HFD) (Harlan Teklad rabbit diet with 0.5% cholesterol, TD 87251). After 4 weeks of high fat diet, rabbits were randomized into three different treatment groups, normal control (n=5), lipoic acid (100 mg/kg/day) (n=5), INV 70-65 (100 mg/kg/day) (n=5). These drugs were administered to the animals via their chow by mixing the drugs with the high fat diet. A fixed amount of chow and drugs admixed in the chow were fed to all animals every day after carefully calculating food intake in each rabbit. Drugs were dissolved in 100% ethanol and sprayed onto the diet and kept under vacuum to let ethanol evaporate overnight. Two (2) weeks after drug or control admixed HFD, all rabbits underwent aortic balloon denudation surgeries followed by 12 weeks of continued administration of drug or controls admixed with HFD. FIG. 29 provides an outline of the experimental design.
MRI experiments were conducted at two time points: 1 week and 12 weeks after the balloon denudation procedure (FIG. 29). […] MR images were analyzed using a Siemens Leonardo Workstation (Siemens Healthcare Inc. Germany).
To assess the different rates of atherosclerosis plaque progression for each rabbit group, the aortic wall was identified in the pre-contrast images at both MRI time points. […] To account for the variable number of slices, for each rabbit a normalized aortic wall volume was calculated.
To assess plaque neovasculature progression in the different treatment groups, only the 12 weeks post balloon denudation MR images were used. […] The signal to noise ratio (SNR) for each slice was calculated as the mean signal obtained from the vessel wall divided by the standard deviation of the noise from a region outside the body. A ratio of the SNR enhancement for each rabbit was obtained by dividing the post and pre contrast calculated SNRs.

SMILES	PCSK9 expression [1]	SREBP-1 regulation [2]	LDL receptor expression [3]	VLDL cholesterol [4]	triglycerides [4]	joint pains and markers of inflammation [5]	gadolinium enhancement of the aorta ([6]; compared to controls and lipoic acid treatment)	plaque burden by MRI ([6]; high fat diet, 100 mg/kg/day, 12 weeks)
CC(=O)Oc1cc2c(cc1[N+](=O)[O-])OCO2 [INV-75, 3,4-methylenedioxy-6-nitrophenyl acetate]	no effects	no effects	increases	lowering	decrease	marked improvement	–	–
O=C(CCCCC1CCSS1)Oc1ccc2c(c1)OCO2 (centres unmarked) [INV-7065, 3,4-Methylenedioxy phenyl lipoate]	–	–	–	–	–	–	reduction	marked attenuation
